ChEMBL document CHEMBL3822358 (J Med Chem, 2016)

Legend:
[1] = biological target: Insulin-like growth factor 1 receptor (Homo sapiens, UniProt P08069)
Insulin receptor = Insulin receptor (Homo sapiens, UniProt P06213)
Description: Inhibition of human InsR using myelin basic protein as substrate and [gamma-33P]ATP measured after 1 hr

[2] = biological target: T1, ALK tyrosine kinase receptor (Homo sapiens, UniProt Q9UM73)
Target sequence in this assay (Q9UM73 whole entry): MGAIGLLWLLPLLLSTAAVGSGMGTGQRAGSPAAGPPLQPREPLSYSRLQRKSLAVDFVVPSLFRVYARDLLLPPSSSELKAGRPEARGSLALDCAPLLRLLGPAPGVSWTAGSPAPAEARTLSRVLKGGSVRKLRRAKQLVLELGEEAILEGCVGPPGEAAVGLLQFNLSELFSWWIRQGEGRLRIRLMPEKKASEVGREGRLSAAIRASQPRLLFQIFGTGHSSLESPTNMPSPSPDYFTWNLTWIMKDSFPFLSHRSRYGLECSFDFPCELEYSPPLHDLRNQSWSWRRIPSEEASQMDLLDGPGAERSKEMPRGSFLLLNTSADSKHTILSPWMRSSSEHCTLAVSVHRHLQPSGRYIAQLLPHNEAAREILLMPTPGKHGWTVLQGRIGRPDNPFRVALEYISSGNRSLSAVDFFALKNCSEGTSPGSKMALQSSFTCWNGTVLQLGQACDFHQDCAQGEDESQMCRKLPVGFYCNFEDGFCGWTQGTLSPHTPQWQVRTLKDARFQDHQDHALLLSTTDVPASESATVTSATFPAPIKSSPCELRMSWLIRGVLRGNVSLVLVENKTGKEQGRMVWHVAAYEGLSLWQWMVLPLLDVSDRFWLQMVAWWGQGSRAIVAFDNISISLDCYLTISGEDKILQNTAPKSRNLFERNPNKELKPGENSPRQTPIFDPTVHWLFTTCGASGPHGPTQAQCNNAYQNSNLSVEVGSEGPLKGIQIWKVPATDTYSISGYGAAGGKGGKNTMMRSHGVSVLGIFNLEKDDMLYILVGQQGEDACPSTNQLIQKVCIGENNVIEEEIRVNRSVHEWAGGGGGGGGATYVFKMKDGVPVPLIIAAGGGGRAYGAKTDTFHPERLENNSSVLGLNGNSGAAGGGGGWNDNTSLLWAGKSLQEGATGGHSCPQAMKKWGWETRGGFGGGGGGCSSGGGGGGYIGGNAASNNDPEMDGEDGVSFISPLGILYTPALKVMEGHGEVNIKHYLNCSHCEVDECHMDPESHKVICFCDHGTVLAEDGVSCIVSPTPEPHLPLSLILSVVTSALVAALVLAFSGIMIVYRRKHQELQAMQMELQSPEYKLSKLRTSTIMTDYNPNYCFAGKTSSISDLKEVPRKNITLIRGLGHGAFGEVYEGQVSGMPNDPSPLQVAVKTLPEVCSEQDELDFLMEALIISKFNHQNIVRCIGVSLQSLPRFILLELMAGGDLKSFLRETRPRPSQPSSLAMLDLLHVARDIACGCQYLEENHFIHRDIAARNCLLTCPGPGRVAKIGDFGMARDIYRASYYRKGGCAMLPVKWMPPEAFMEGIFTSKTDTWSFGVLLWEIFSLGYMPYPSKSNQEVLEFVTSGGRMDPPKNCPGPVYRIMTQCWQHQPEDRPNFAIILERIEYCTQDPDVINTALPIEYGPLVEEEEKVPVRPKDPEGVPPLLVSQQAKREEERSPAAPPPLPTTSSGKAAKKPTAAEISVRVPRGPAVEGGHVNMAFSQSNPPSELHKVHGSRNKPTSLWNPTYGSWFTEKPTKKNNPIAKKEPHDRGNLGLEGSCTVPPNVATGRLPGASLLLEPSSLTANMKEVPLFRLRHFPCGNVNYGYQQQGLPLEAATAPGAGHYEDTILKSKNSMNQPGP
Description: Inhibition of human ALK using poly[Glu:Tyr] (4:1) as substrate and [gamma-33P]ATP measured after 1 hr

cells [3] = settings: Homo sapiens, KARPAS-299, 72 h
Description: Antiproliferative activity against human ALK-positive KARPAS299 cells assessed as reduction in cell viability measured after 72 hrs by CellTiter 96 aqueous one solution cell proliferation assay

cells [4] = settings: Homo sapiens, U-937, 72 h
Description: Antiproliferative activity against human ALK-negative U937 cells assessed as reduction in cell viability measured after 72 hrs by CellTiter 96 aqueous one solution cell proliferation assay

[5] = AUC (0 to infinity) in CD rat at 3 mg/kg, iv by LC-MS/MS analysis; format: ADME, organism-based; parameters: dose 3 mg/kg, time infinity, route intravenous; settings: CD, in vivo
[6] = Clearance in CD rat at 3 mg/kg, iv by LC-MS/MS analysis; format: ADME, organism-based; settings: in vivo
[7] = Half life in CD rat at 3 mg/kg, iv by LC-MS/MS analysis; format: ADME, organism-based; settings: CD, in vivo
[8] = Volume of distribution at steady state in CD rat at 3 mg/kg, iv by LC-MS/MS analysis; format: ADME, organism-based; settings: CD, in vivo, read-out: Vdss
[9] = Cmax in CD rat at 10 mg/kg, po by LC-MS/MS analysis; format: ADME, organism-based; parameters: dose 10 mg/kg, route oral; settings: in vivo
[10] = AUC (0 to infinity) in CD rat at 10 mg/kg, po by LC-MS/MS analysis; format: ADME, organism-based; parameters: dose 10 mg/kg, route oral, time infinity; settings: in vivo
[11] = Tmax in CD rat at 10 mg/kg, po by LC-MS/MS analysis; format: ADME, organism-based; settings: in vivo
[12] = Half life in CD rat at 10 mg/kg, po by LC-MS/MS analysis; format: ADME, organism-based; settings: in vivo
[13] = Oral bioavailability in CD rat at 10 mg/kg by LC-MS/MS analysis; format: ADME, organism-based; settings: in vivo
[14] = biological target: T1, ALK tyrosine kinase receptor; test: Inhibition of ALK phosphorylation in mouse xenografted with human KARPAS299 cells assessed as p-ALK level at 25 mg/kg, po administered as single dose measured after 10 hrs relative to 2 hrs vehicle-treated tumor; format: organism-based; parameters: scale not given: the % may be the effect or the level left; settings: KARPAS-299
[15] = biological target: T1, ALK tyrosine kinase receptor; test: Inhibition of ALK phosphorylation in mouse xenografted with human KARPAS299 cells assessed as p-ALK level at 25 mg/kg, po administered as single dose measured after 16 hrs relative to 2 hrs vehicle-treated tumor; format: organism-based; parameters: scale not given: the % may be the effect or the level left; settings: KARPAS-299
[16] = biological target: T1, ALK tyrosine kinase receptor; test: Inhibition of ALK phosphorylation in mouse xenografted with human KARPAS299 cells assessed as p-ALK level at 25 mg/kg, po administered as single dose measured after 24 hrs relative to 2 hrs vehicle-treated tumor; format: organism-based; parameters: scale not given: the % may be the effect or the level left; settings: KARPAS-299

Chain of Insulin receptor (P06213 28-758 limits assumed): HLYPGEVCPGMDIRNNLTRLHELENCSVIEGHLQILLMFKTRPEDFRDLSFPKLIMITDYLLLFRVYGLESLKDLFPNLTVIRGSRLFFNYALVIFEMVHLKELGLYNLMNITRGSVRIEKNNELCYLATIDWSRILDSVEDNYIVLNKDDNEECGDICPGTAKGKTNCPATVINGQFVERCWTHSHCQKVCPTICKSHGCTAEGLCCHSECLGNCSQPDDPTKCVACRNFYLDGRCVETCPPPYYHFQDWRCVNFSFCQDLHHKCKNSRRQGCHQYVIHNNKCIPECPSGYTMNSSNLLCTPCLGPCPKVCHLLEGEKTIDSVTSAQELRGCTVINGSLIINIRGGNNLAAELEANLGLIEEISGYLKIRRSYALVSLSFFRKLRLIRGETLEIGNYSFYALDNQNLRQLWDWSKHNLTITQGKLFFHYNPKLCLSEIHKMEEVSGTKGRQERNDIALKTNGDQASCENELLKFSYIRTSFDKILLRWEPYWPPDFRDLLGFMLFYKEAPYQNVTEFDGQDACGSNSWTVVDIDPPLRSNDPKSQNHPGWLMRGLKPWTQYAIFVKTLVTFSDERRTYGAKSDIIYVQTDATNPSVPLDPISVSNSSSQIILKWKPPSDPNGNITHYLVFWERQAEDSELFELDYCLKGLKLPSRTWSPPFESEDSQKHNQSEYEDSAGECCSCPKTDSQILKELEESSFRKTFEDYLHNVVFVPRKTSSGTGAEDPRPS
Chain of Insulin receptor (P06213 763-1382 limits assumed): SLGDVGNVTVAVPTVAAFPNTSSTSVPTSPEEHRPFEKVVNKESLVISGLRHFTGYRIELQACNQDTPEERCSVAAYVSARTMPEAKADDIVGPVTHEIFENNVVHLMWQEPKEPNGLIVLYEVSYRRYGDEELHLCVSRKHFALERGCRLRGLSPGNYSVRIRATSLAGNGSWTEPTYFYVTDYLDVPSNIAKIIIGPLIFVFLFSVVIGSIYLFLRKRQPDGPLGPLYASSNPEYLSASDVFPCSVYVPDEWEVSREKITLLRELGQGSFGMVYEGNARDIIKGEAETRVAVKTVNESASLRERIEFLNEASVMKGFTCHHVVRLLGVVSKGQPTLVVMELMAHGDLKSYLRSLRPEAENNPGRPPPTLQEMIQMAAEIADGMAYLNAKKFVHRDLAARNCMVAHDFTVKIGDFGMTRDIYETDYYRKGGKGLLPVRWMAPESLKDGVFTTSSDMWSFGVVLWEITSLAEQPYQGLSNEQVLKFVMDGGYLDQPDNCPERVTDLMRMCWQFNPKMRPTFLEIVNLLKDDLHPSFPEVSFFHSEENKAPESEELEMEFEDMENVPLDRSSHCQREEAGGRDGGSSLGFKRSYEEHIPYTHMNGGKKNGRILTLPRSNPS
Chain of Insulin-like growth factor 1 receptor (P08069 31-736 limits assumed): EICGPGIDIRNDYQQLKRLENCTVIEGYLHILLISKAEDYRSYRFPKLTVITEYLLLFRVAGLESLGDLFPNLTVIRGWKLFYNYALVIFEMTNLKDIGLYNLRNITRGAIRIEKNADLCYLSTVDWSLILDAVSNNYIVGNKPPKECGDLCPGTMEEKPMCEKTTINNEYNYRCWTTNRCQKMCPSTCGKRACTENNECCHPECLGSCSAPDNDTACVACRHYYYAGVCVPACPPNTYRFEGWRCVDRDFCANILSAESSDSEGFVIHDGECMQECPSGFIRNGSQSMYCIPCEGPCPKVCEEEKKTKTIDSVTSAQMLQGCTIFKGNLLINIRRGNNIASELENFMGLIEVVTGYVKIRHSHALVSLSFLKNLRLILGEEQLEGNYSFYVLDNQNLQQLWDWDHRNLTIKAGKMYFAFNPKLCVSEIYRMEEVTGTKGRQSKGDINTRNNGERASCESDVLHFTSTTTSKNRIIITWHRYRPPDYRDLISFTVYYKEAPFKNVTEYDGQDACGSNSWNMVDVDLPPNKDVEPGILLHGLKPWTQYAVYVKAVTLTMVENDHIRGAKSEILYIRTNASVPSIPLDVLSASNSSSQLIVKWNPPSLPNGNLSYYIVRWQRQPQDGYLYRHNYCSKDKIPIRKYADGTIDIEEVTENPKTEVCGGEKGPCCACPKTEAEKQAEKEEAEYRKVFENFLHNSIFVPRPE
Chain of Insulin-like growth factor 1 receptor (P08069 741-1367 limits assumed): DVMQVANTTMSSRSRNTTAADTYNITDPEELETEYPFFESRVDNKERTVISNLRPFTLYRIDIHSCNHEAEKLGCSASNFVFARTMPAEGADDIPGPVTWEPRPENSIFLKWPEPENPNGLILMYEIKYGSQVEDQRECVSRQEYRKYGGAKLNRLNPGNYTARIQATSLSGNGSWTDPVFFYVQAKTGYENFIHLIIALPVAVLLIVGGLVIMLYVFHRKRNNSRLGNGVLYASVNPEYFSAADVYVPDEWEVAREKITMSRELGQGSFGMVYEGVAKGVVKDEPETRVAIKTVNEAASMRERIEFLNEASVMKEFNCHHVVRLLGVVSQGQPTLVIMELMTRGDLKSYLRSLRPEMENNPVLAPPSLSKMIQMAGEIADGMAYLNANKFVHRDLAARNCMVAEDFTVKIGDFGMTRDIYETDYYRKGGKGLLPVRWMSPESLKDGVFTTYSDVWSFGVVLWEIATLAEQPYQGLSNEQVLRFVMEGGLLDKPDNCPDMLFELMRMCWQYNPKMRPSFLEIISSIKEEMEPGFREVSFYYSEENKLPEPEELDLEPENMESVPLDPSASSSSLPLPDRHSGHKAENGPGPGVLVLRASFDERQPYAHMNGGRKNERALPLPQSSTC

SMILES | IC50 [1] [nM] | IC50 (Insulin receptor) [nM] | IC50 [2] [nM] | IC50 (cells [3]) [nM] | IC50 (cells [4]) [nM] | other results
COc1cc(N2CCC(N3CCN(C)CC3)CC2)c(F)cc1Nc1ncc(Cl)c(Nc2ccccc2P(C)(C)=O)n1 | 59.5 | 1180 | 1.03 | 162 | 1230 | 
COc1cc(N2CCC(N3CCN(C)CC3)CC2)c(C)cc1Nc1ncc(Cl)c(Nc2ccccc2P(C)(C)=O)n1 | 27 | 171 | 0.86 |  |  | GI50 (cells [3]): 16 nM; GI50 (cells [4]): 1280 nM
COc1cc(P(C)(C)=O)ccc1Nc1ncc(Cl)c(Nc2ccccc2P(C)(C)=O)n1 | 139 | 726 | 1.06 | 738 | 13200 | 
CCOc1cc(N2CCC(N3CCN(C)CC3)CC2)ccc1Nc1ncc(Cl)c(Nc2ccccc2P(C)(C)=O)n1 | 103 | 253 | 0.75 | 58.9 | 22400 | 
COc1cc(N2CCC(N3CCN(C)CC3)CC2)ccc1Nc1ncc(C2CC2)c(Nc2ccccc2P(C)(C)=O)n1 | 434 | 367 | 3.23 | 278 | 10600 | 
COc1cc(N2CCC(N3CCN(C)CC3)CC2)ccc1Nc1ncc(Cl)c(Nc2ccccc2C(N)=O)n1 | 1.4 | 3.4 | 0.8 |  |  | 
COc1ccccc1Nc1ncc(Cl)c(Nc2ccccc2S(=O)(=O)C(C)C)n1 |  |  | 2.1 | 349 | 20800 | 
COc1cc(N2CCC(N3CCCCC3)C2)ccc1Nc1ncc(Cl)c(Nc2ccccc2P(C)(C)=O)n1 (stereo unspecified) | 81.5 | 270 | 0.88 | 66.7 | 2390 | 
COc1cc(N2CCCN(C)CC2)ccc1Nc1ncc(Cl)c(Nc2ccccc2P(C)(C)=O)n1 | 77.5 | 339 | 0.72 | 53.9 | 2970 | 
COc1cc(N2CCC(N3CCN(C)CC3)CC2)ccc1Nc1ncc(Cl)c(Nc2ccccc2)n1 | 51.6 | 81.7 | 9.9 |  |  | 
COc1cc(N2CCC(N3CCN(C)CC3)CC2)ccc1Nc1ncc(Cl)c(Nc2ccccc2I)n1 | 6.2 | 13.7 | 1.36 | 705 |  | 
CNC(=O)CN1CCN(c2ccc(Nc3ncc(Cl)c(Nc4ccccc4P(C)(C)=O)n3)c(OC)c2)CC1 | 125 | 459 | 3.1 | 270 | 7000 | 
COc1cc(P(C)(C)=O)ccc1Nc1ncc(Cl)c(Nc2ccccc2OC)n1 | 22.1 | 55.2 | 0.96 | 278 | 2910 | 
COc1cc(N2CCN(C(C)=O)CC2)ccc1Nc1ncc(Cl)c(Nc2ccccc2P(C)(C)=O)n1 | 32.5 | 103 |  | 79.9 | 5450 | 
COc1cc(N2CCC(N3CCN(C)CC3)CC2)ccc1Nc1ncc(Cl)c(Nc2ccccc2S(=O)(=O)N(C)C)n1 | 1.93 | 8.44 | 0.75 |  |  | 
COc1cc(N2CCC(N3CCN(C)CC3)CC2)ccc1Nc1ncc(Cl)c(Nc2ccccc2C(=O)N(C)C)n1 | 6.17 | 6.05 | 4.77 |  |  | 
COc1cc(N2CCC(N3CCN(C)CC3)CC2)ccc1Nc1ncc(Cl)c(Nc2ccccc2C(C)=O)n1 | 1.33 | 2.16 | 1.59 |  |  | 
COc1cc(N2CCC(N3CCN(C)CC3)CC2)ccc1Nc1ncc(C(C)=O)c(Nc2ccccc2P(C)(C)=O)n1 |  |  | 291 |  |  | 
COc1cc(N2CCC(N3CCN(C)CC3)CC2)ccc1Nc1ncc(Cl)c(Nc2ccccc2OC)n1 | 8.7 | 26 | 1.88 | 851 |  | 
COc1cc(N2CCC(N3CCN(C)CC3)CC2)ccc1Nc1ncc(Cl)c(Nc2ccccc2C(C)O)n1 (stereo unspecified) | 36.1 | 43.2 | 0.99 |  |  | 
COc1cc(P(C)(C)=O)ccc1Nc1ncc(Cl)c(Nc2ccccc2C(N)=O)n1 | 0.11 | 14.1 | 0.68 | 613 | 2370 | 
COc1cc(N2CCC(N3CCN(C)CC3)CC2)ccc1Nc1ncc(Cl)c(Nc2ccccc2C#N)n1 | 51.6 | 128 | 1.86 |  |  | 
COc1cc(P(C)(C)=O)ccc1Nc1ncc(Cl)c(Nc2ccccc2C(C)=O)n1 | 0.47 | 0.88 | 0.79 | 251 | 1420 | 
COc1cc(N2CCC(N3CCN(C)CC3)CC2)ccc1Nc1ncc(OC)c(Nc2ccccc2P(C)(C)=O)n1 | 117 | 1680 | 1.19 | 429 | 13900 | 
COc1cc(-c2cnn(C3CCNCC3)c2)ccc1Nc1ncc(Cl)c(Nc2ccccc2P(C)(C)=O)n1 | 98.1 | 702 | 0.76 | 322 | 6230 | 

Now from value to compound, other results behind:

IC50 [1] [nM] | IC50 (Insulin receptor) [nM] | IC50 [2] [nM] | IC50 (cells [3]) [nM] | IC50 (cells [4]) [nM] | SMILES | other results
42.7 | 489 | 0.33 | 66.9 | 1170 | COc1cc(N2CC[C@@H](N(C)C)C2)ccc1Nc1ncc(Cl)c(Nc2ccccc2P(C)(C)=O)n1 | 
100 | 397 | 0.33 | 65.1 | 6330 | COc1cc(OC2CCN(C)C2)ccc1Nc1ncc(Cl)c(Nc2ccccc2P(C)(C)=O)n1 (stereo unspecified) | 
0.4 | 4.7 | 0.33 | 405 | 4810 | COc1cc(P(C)(C)=O)ccc1Nc1ncc(Cl)c(Nc2ccccc2S(C)(=O)=O)n1 | 
51.4 | 399 | 0.24 | 77.4 | 5990 | COc1cc(N2CCOCC2)ccc1Nc1ncc(Cl)c(Nc2ccccc2P(C)(C)=O)n1 | 
1.9 | 9.9 | 0.31 | 20 | 4840 | COc1cc(P(C)(C)=O)ccc1Nc1ncc(Cl)c(Nc2ccccc2S(=O)(=O)C(C)C)n1 | 
128 | 483 | 0.42 | 46.9 | 5310 | COc1cc(N2CCC(N3CCN(C)CC3)CC2)ccc1Nc1ncc(C)c(Nc2ccccc2P(C)(C)=O)n1 | 
12.8 | 28.1 | 0.18 | 37.6 | 1800 | COc1cc(N2CCN(CCO)CC2)ccc1Nc1ncc(Cl)c(Nc2ccccc2P(C)(C)=O)n1 | AUC(0-inf) [5]: 1330 ng·h/mL; clearance [6]: 35.8 mL/min/kg; half-life [7]: 8.4 h; Vd [8]: 9.51 L/kg; Cmax [9]: 75.7 ng/mL; AUC(0-inf) [10]: 777 ng·h/mL; Tmax [11]: 4 h; half-life [12]: 2.9 h; bioavailability [13]: 18%
47.3 | 270 | 0.49 | 61 | 5680 | COc1cc(N2CCC(N3CCOCC3)CC2)ccc1Nc1ncc(Cl)c(Nc2ccccc2P(C)(C)=O)n1 | AUC(0-inf) [5]: 17900 ng·h/mL; clearance [6]: 2.83 mL/min/kg; half-life [7]: 3.9 h; Vd [8]: 0.78 L/kg; Cmax [9]: 2840 ng/mL; AUC(0-inf) [10]: 43600 ng·h/mL; Tmax [11]: 2 h; half-life [12]: 6.8 h; bioavailability [13]: 73%; Activity [14]: 15%; Activity [15]: 52%; Activity [16]: 50%
203 | 700 | 0.68 | 54.6 | 21500 | CC(C)Oc1cc(N2CCC(N3CCN(C)CC3)CC2)ccc1Nc1ncc(Cl)c(Nc2ccccc2P(C)(C)=O)n1 | 
143 | 1680 | 0.39 | 147 | 24200 | COc1cc(N2CCC(N3CCN(C)CC3)CC2)ccc1Nc1ncc(F)c(Nc2ccccc2P(C)(C)=O)n1 | 
0.76 | 5.1 | 0.59 |  |  | COc1cc(N2CCC(N3CCN(C)CC3)CC2)ccc1Nc1ncc(Cl)c(Nc2ccccc2S(C)(=O)=O)n1 | 
45.1 | 314 | 0.12 | 169 | 3460 | CCP(=O)(CC)c1ccccc1Nc1nc(Nc2ccc(N3CCC(N4CCN(C)CC4)CC3)cc2OC)ncc1Cl | 
43.3 | 285 | 0.28 | 101 | 4920 | COc1cc(N2CCN(C3CCN(C)CC3)CC2)ccc1Nc1ncc(Cl)c(Nc2ccccc2P(C)(C)=O)n1 | 
17.4 | 284 | 0.22 | 113 | 2310 | COc1cc(OCCCN2CCCC2)ccc1Nc1ncc(Cl)c(Nc2ccccc2P(C)(C)=O)n1 | 
38.8 | 162 | 0.49 | 105 | 3390 | COc1cc(N2CCC(N3CCCN(C)CC3)CC2)ccc1Nc1ncc(Cl)c(Nc2ccccc2P(C)(C)=O)n1 | 
3.2 | 100 | 0.07 | 41.5 | 1720 | COc1cc(N2CCC(N(C)C)CC2)ccc1Nc1ncc(Cl)c(Nc2ccccc2P(C)(C)=O)n1 | 
